According to BindingDB's records for doi:10.1016/s0968-0896(00)00026-2 (Alcon Research, 2000):
Where a name gives a salt, the structure may show the parent alone.

The molecules below were run against Carbonic anhydrase 2 (Homo sapiens, UniProt P00918) (assay: In vitro binding of inhibitor to hCA-II). Conditions: not given.
Protocol: Inhibitor binding to CA II was determined using a fluorescence competition assay. Displacement of dansylamide and binding of the inhibitor was determined by measuring and comparing the average fluorescence intensities of the treated versus control reactions. Binding constants were estimated from a Dixon plot of the data (reciprocal of the average fluorescence intensity versus inhibitor concentration)

Structure (SMILES)	Ki [nM]
COCCCN1C(CNC2CC2)=Cc2cc(S(N)(=O)=O)sc2S1(=O)=O [3-[(cyclopropylamino)methyl]-2-(3-methoxypropyl)-1,1-dioxo-2H-1,7,2-thieno[3,2-e][1,2]thiazine-6-sulfonamide hydrochloride]	0.26
C#CCNCC1=Cc2cc(S(N)(=O)=O)sc2S(=O)(=O)N1CCC [1,1-dioxo-3-[(prop-2-yn-1-ylamino)methyl]-2-propyl-2H-1,7,2-thieno[3,2-e][1,2]thiazine-6-sulfonamide]	0.1
C#CCNCC1=Cc2cc(S(N)(=O)=O)sc2S(=O)(=O)N1c1cccc(O)c1 [2-(3-hydroxyphenyl)-1,1-dioxo-3-[(prop-2-yn-1-ylamino)methyl]-2H-1,7,2-thieno[3,2-e][1,2]thiazine-6-sulfonamide hydrochloride]	0.16
COc1cccc(N2C(CNCCO)=Cc3cc(S(N)(=O)=O)sc3S2(=O)=O)c1 [3-{[(2-hydroxyethyl)amino]methyl}-2-(3-methoxyphenyl)-1,1-dioxo-2H-1,7,2-thieno[3,2-e][1,2]thiazine-6-sulfonamide hydrochloride]	0.11
NS(=O)(=O)c1cc2c(s1)S(=O)(=O)N(CC1CC1)C(CN1CCOCC1)=C2 [2-(cyclopropylmethyl)-3-(morpholin-4-ylmethyl)-1,1-dioxo-2H-1,7,2-thieno[3,2-e][1,2]thiazine-6-sulfonamide hydrochloride]	0.3
CCCN1C(CN(CCOC)CCOC)=Cc2cc(S(N)(=O)=O)sc2S1(=O)=O [3-{[bis(2-methoxyethyl)amino]methyl}-1,1-dioxo-2-propyl-2H-1,7,2-thieno[3,2-e][1,2]thiazine-6-sulfonamide hydrochloride]	0.15
C=CCN1C(CN2CCOCC2)=Cc2cc(S(N)(=O)=O)sc2S1(=O)=O [3-(morpholin-4-ylmethyl)-1,1-dioxo-2-(prop-2-en-1-yl)-2H-1,7,2-thieno[3,2-e][1,2]thiazine-6-sulfonamide]	0.16

More lines, now with the values ahead:

Ki [nM]	Structure (SMILES)
0.22	COCCN1C(CN2CCOCC2)=Cc2cc(S(N)(=O)=O)sc2S1(=O)=O [Compound 17h1]
0.2	NS(=O)(=O)c1cc2c(s1)S(=O)(=O)N(CCCO)C(CN1CCOCC1)=C2 [Compound 17o1]
0.31	NS(=O)(=O)c1cc2c(s1)S(=O)(=O)N(C1CCCCC1)C(CN1CCOCC1)=C2 [Compound 17g1]
0.21	CN1C(CN2CCOCC2)=Cc2sc(S(N)(=O)=O)cc2S1(=O)=O [Compound 25]
0.27	CCCN1C(CN2CCOCC2)=Cc2cc(S(N)(=O)=O)sc2S1(=O)=O [Compound 17c1]
0.47	C#CCNCC1=Cc2cc(S(N)(=O)=O)sc2S(=O)(=O)N1C(C)C [Compound 17d8]
0.12	NS(=O)(=O)c1cc2c(s1)S(=O)(=O)N(c1ccc(N3CCOCC3)cc1)C(CN1CCOCC1)=C2 [Compound 17n1]
0.25	COCCCN1C(CN2CCOCC2)=Cc2cc(S(N)(=O)=O)sc2S1(=O)=O [Compound 17i1]
0.33	CC(C)N1C(CN2CCOCC2)=Cc2cc(S(N)(=O)=O)sc2S1(=O)=O [Compound 17d1]
0.08	COc1ccc(N2C(CN3CCOCC3)=Cc3cc(S(N)(=O)=O)sc3S2(=O)=O)cc1OC [Compound 17m1]
0.12	COCCCN1C(Cn2ccnc2)=Cc2cc(S(N)(=O)=O)sc2S1(=O)=O [Compound 17i10]
0.21	COCCN(CCOC)CC1=Cc2cc(S(N)(=O)=O)sc2S(=O)(=O)N1CCOC [Compound 17h2]
0.11	COc1ccc(CN2C(CN3CCOCC3)=Cc3cc(S(N)(=O)=O)sc3S2(=O)=O)cc1 [Compound 17j1]
0.33	CCN1C(CN(CCO)CCO)=Cc2cc(S(N)(=O)=O)sc2S1(=O)=O [Compound 17b4]

Same assay, conditions: pH 7.4; 37 °C

Structure (SMILES)	Ki [nM]
CCCNCCN1C=Cc2cc(S(N)(=O)=O)sc2S1(=O)=O [2-[2-(Propylamino)ethyl]-2H-thieno[3,2-e]-1,2-thiazine-6-sulfonamide 1,1-dioxide hydrochloride]	0.52
COc1cccc(N2C(CN3CCOCC3)=Cc3cc(S(N)(=O)=O)sc3S2(=O)=O)c1 [2-(3-Methoxyphenyl)-3-[(4-morpholinyl)methyl]-2H-thieno-[3,2-e]-1,2-thiazine-6-sulfonamide 1,1-dioxide]	0.15
NS(=O)(=O)c1cc2c(s1)S(=O)(=O)N(C/C=C/CN1CCOCC1)C=C2 [2-[(2E)-4-(morpholin-4-yl)but-2-en-1-yl]-1,1-dioxo-2H-1,7,2-thieno[3,2-e][1,2]thiazine-6-sulfonamide hydrochloride]	0.24
COCCN(C)CC1=Cc2cc(S(N)(=O)=O)sc2S(=O)(=O)N1C [3-[N-(2-Methoxyethyl)-N-methylamino]methyl]-2-methyl-2H-thieno[3,2-e]-1,2-thiazine-6-sulfonamide 1,1-dioxide]	0.15
CCN1C(CN(CCOC)CCOC)=Cc2cc(S(N)(=O)=O)sc2S1(=O)=O [2-Ethyl-3-[[bis(2-methoxyethyl)amino]methyl]-2H-thieno-[3,2-e]-1,2-thiazine-6-sulfonamide 1,1-dioxide hydrochloride]	0.21
COCCN(CCOC)CCN1C=Cc2cc(S(N)(=O)=O)sc2S1(=O)=O [2-{2-[bis(2-methoxyethyl)amino]ethyl}-1,1-dioxo-2H-1,7,2-thieno[3,2-e][1,2]thiazine-6-sulfonamide hydrochloride]	0.34
CN1C(CN2CCOCC2)=Cc2cc(S(N)(=O)=O)sc2S1(=O)=O [2-methyl-3-(morpholin-4-ylmethyl)-1,1-dioxo-2H-1,7,2-thieno[3,2-e][1,2]thiazine-6-sulfonamide hydrochloride]	0.26
CCN1C(CN2CCOCC2)=Cc2cc(S(N)(=O)=O)sc2S1(=O)=O [2-Ethyl-3-[(4-morpholinyl)methyl]-2H-thieno[3,2-e]-1,2-thiazine-6-sulfonamide 1,1-dioxide hydrochloride]	0.21
COCCCN(CCOC)CC1=Cc2cc(S(N)(=O)=O)sc2S(=O)(=O)N1C [3-{[(2-methoxyethyl)(3-methoxypropyl)amino]methyl}-2-methyl-1,1-dioxo-2H-1,7,2-thieno[3,2-e][1,2]thiazine-6-sulfonamide hydrochloride]	0.08

More lines, now with the values ahead:

Ki [nM]	Structure (SMILES)
0.25	CC(=O)N1CCN(CCN2C=Cc3cc(S(N)(=O)=O)sc3S2(=O)=O)CC1 [Compound 5c]
0.1	C=CCN(CCOC)CC1=Cc2cc(S(N)(=O)=O)sc2S(=O)(=O)N1C [Compound 17a7]
0.32	NS(=O)(=O)c1cc2c(s1)S(=O)(=O)N(CCN1CCOCC1)C=C2 [Compound 5b]
